Source: paper PMC3545992, “Trisubstituted Pyrazolopyrimidines as Novel Angiogenesis Inhibitors” (PLoS ONE, 2013)

Experiments:
Cdk2 = test system: Cdk2; set-up: method as in Jorda et al. [23]; settings: ref Jorda et al. [23]; cited from earlier work
Cdk5 = test system: Cdk5; set-up: method as in Jorda et al. [23]; settings: ref Jorda et al. [23]; cited from earlier work
HMEC-1 cells = assay: Microscopy / propidium iodide staining for cell death at proliferation-assay cell density; assay type: cell-based; settings: 30 µM, 72 h
Experimental: A: HMEC-1 cells were seeded in the same density as for the proliferation assay and treated with the respective compound at 30 µM for 72 h to test whether reduced cell numbers in the proliferation assay are due to inhibition of proliferation or to excessive cell death. No increase of detached, obviously dead or propidium iodide positive cells was detected. B and C: Confluent layers of HUVECs were scratched and the cells were allowed to migrate for 16 h in the presence or absence of 10 µM of the compounds. B: The columns indicate the area re-covered by migrating cells (n = 3, mean ± SEM, * p<0.05, One Way ANOVA, Dunnett). C: Scratches at endpoint, representative images taken out of three experiments.
HMEC-1 were seeded into 96-well-plates (1,500 cells/well). After 24 h, the cells were stimulated with the indicated compounds. At the same time point, cells in a reference plate were stained with crystal violet, serving as initial cell number. After 72 hours of stimulation, cells were fixed and stained with crystal-violet solution for 10 minutes, washed with water, and air dried. Crystal violet was eluted with dissolving buffer and absorbance was measured at 550 nm (Tecan Sunrise Absorbance reader, TECAN, Crailsheim, Germany). […] Phase contrast and fluorescence images were obtained with an inverted Nikon microscope (Ti, Nikon, Düsseldorf, Germany) equipped with a 10x objective.

Cdk9/CycT = target: T1, Cdk9/CycT (Homo sapiens, UniProt P50750); assay: In vitro kinase profile (ProQinase); assay type: biochemical
T1 construct: purchased ProQinase (Freiburg, Germany)
T1 sequence (P50750 whole entry): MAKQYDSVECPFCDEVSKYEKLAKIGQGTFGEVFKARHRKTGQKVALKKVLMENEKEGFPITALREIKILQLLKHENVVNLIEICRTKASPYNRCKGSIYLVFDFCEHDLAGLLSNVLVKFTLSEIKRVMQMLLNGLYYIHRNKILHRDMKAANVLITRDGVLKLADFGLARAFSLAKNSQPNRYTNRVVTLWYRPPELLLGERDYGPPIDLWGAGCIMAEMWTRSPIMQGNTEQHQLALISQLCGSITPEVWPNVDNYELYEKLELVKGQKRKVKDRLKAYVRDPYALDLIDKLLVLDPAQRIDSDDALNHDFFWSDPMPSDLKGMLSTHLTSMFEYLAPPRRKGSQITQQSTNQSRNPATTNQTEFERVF
T1 sequence (O60563 whole entry partner): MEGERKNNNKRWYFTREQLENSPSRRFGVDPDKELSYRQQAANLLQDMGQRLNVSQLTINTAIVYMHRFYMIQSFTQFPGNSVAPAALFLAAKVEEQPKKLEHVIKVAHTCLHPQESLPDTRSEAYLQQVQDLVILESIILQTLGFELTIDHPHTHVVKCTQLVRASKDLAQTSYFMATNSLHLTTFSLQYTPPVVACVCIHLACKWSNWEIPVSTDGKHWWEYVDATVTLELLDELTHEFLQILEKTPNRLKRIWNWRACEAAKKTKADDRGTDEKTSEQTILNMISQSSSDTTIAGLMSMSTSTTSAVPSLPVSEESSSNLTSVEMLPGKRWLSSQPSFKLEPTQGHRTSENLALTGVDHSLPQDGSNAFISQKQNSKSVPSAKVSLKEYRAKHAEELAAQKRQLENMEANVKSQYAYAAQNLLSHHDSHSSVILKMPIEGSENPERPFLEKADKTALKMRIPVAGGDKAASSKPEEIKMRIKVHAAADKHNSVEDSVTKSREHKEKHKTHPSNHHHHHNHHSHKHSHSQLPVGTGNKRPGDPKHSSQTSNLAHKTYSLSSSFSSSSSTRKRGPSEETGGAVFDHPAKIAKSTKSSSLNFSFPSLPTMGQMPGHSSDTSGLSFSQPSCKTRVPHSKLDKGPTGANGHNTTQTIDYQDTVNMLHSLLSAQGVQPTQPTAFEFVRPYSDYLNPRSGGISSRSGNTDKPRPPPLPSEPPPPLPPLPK
Experimental: (§1) Therefore, it was of interest to see which kinases, especially which Cdks, are inhibited by those compounds. The kinase profiling was performed by ProQinase (Freiburg, Germany) for LGR 1406 and 1407. For LGR 1404 kinase profiling has recently been published previously. LGR 1406 and 1407 were tested for their IC50 in a panel of 24 kinases, including the Cdk1, Cdk2, Cdk4, Cdk5, Cdk6, Cdk7 and Cdk9. The other kinases tested were PTK6, EGFR, FAK, FGFR1 and FGFR2, NLK, PAK4, VEGFR1 and VEGFR2, MEK1, ROCK1, RAF1, ALK, RSK3, AURKA, and AMPKα1.

Cdk7/CycH/MAT1 = target: T2, Cdk7/CycH/MAT1 (Homo sapiens, UniProt P50613); assay: In vitro kinase profile (ProQinase); assay type: biochemical
T2 construct: purchased ProQinase (Freiburg, Germany)
T2 sequence (P50613 whole entry): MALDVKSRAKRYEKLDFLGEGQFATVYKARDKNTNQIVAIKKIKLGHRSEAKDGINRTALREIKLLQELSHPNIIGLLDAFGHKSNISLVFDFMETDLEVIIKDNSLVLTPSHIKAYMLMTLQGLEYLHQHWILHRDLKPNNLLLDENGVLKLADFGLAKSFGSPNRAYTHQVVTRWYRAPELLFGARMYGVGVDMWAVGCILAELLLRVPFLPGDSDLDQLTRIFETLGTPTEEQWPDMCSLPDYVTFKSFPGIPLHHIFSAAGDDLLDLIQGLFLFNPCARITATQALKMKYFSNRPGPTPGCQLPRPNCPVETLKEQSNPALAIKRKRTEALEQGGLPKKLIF
T2 sequence (P51946 whole entry partner): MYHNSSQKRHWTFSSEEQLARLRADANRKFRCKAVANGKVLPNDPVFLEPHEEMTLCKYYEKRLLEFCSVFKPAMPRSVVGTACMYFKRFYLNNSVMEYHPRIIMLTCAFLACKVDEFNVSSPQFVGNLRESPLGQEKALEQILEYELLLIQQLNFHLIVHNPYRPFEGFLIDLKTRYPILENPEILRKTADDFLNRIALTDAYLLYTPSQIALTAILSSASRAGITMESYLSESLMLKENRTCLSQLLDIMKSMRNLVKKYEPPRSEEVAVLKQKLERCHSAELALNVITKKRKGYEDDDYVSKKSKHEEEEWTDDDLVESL
T2 sequence (P51948 whole entry partner): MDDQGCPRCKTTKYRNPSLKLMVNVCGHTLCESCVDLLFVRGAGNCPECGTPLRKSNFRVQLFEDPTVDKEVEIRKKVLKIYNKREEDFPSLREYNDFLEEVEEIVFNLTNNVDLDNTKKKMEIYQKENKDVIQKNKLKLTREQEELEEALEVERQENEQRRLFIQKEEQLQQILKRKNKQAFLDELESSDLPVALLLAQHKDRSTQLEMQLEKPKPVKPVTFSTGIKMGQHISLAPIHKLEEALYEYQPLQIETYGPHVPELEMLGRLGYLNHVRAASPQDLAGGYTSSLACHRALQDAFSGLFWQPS
Experimental: as §1

PAK4 = target: T3, PAK4 (Homo sapiens, UniProt O96013); assay: In vitro kinase profile (ProQinase); assay type: biochemical
T3 construct: purchased ProQinase (Freiburg, Germany)
T3 sequence (O96013 whole entry): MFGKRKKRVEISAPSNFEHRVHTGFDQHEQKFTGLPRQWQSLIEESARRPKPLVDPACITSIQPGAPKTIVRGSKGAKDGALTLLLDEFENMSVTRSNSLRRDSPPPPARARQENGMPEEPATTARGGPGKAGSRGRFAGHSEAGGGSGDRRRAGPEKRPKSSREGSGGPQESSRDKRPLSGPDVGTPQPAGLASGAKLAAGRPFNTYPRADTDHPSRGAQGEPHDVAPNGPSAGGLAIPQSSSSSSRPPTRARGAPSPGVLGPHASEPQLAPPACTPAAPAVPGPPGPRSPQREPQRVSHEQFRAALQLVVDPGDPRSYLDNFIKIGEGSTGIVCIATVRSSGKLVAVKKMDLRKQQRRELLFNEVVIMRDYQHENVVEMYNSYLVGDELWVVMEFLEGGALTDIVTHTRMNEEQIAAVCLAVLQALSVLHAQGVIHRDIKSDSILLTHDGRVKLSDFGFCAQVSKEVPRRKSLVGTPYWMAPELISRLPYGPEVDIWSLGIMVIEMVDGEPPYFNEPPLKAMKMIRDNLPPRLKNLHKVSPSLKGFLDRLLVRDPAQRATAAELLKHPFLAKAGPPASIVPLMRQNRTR
Experimental: as §1

Cdk2/CycE = target: T4, Cdk2/CycE (Homo sapiens, UniProt P24941); assay: In vitro kinase profile (ProQinase); assay type: biochemical
T4 construct: purchased ProQinase (Freiburg, Germany)
Experimental: as §1

Cdk5/p25 = target: T5, Cdk5/p25 (Homo sapiens, UniProt Q00535); assay: In vitro kinase profile (ProQinase); assay type: biochemical
T5 construct: purchased ProQinase (Freiburg, Germany)
T5 sequence (Q00535 whole entry): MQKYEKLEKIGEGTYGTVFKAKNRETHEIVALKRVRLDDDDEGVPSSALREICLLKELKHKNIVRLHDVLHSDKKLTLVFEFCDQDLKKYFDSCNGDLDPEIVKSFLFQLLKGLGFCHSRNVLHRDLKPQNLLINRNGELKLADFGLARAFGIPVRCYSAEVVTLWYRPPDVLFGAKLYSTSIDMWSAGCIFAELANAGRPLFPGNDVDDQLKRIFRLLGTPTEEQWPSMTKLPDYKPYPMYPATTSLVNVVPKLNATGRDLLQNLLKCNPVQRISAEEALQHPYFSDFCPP
T5 sequence (Q15078 99-307 partner limits assumed): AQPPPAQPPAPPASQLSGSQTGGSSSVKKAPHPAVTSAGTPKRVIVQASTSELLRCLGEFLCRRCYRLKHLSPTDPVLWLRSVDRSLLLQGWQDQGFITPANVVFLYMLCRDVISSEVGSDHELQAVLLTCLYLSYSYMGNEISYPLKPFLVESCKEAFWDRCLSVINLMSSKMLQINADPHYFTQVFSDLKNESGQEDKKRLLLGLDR
Experimental: as §1

Aurora kinase A = target: T6, Aurora kinase A (Homo sapiens, UniProt O14965); assay: In vitro kinase profile (ProQinase); assay type: biochemical
T6 construct: purchased ProQinase (Freiburg, Germany)
T6 sequence (O14965 1-403): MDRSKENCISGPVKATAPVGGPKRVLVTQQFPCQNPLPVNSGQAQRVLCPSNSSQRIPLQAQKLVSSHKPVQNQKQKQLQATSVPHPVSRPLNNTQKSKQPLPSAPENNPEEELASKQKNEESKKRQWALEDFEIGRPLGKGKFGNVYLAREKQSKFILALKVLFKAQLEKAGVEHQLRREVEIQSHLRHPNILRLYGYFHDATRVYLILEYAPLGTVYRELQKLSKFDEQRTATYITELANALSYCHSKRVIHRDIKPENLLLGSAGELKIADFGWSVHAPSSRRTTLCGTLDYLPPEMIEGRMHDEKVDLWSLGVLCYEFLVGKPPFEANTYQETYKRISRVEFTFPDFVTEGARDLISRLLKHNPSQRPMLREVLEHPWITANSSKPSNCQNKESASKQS
Experimental: as §1

RSK3 = target: T7, RSK3 (Homo sapiens, UniProt Q15349); assay: In vitro kinase profile (ProQinase); assay type: biochemical
T7 construct: purchased ProQinase (Freiburg, Germany)
Experimental: as §1

FAK = target: T8, FAK (Homo sapiens, UniProt Q05397); assay: In vitro kinase profile (ProQinase); assay type: biochemical
T8 construct: purchased ProQinase (Freiburg, Germany)
Experimental: as §1

Cdk2/CycA = target: T9, Cdk2/CycA (Homo sapiens, UniProt P24941); assay: In vitro kinase profile (ProQinase); assay type: biochemical
T9 construct: purchased ProQinase (Freiburg, Germany)
Experimental: as §1

Cdk6/CycD1 = target: T10, Cdk6/CycD1 (Homo sapiens, UniProt Q00534); assay: In vitro kinase profile (ProQinase); assay type: biochemical
T10 construct: purchased ProQinase (Freiburg, Germany)
T10 sequence (Q00534 whole entry): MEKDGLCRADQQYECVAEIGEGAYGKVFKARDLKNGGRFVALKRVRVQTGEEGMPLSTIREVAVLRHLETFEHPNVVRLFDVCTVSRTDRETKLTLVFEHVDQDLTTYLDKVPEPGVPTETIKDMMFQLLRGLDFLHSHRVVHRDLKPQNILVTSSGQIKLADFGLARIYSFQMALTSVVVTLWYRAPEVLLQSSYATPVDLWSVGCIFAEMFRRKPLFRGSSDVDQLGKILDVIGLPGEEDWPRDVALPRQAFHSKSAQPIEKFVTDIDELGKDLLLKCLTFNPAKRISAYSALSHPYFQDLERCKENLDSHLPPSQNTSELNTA
T10 sequence (P24385 whole entry partner): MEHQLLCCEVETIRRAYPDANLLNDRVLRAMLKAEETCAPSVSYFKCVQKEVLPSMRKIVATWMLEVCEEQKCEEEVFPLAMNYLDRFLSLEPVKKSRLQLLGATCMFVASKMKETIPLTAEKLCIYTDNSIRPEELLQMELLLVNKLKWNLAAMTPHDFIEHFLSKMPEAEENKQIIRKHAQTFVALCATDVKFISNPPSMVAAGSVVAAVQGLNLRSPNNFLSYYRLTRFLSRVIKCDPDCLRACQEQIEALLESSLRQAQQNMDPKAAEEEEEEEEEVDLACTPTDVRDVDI
Experimental: as §1

Cdk1/CycB = target: T11, Cdk1/CycB (Homo sapiens, UniProt P06493); assay: In vitro kinase profile (ProQinase); assay type: biochemical
T11 construct: purchased ProQinase (Freiburg, Germany)
T11 sequence (P06493 whole entry): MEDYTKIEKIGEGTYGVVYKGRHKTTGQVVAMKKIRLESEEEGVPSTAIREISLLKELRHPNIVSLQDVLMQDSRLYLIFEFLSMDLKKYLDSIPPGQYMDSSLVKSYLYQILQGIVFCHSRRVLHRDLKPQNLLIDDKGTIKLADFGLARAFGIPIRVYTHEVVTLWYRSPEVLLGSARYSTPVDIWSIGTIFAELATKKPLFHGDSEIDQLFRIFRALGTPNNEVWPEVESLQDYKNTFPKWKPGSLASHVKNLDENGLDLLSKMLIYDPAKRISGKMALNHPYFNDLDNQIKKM
T11 sequence (P14635 whole entry partner): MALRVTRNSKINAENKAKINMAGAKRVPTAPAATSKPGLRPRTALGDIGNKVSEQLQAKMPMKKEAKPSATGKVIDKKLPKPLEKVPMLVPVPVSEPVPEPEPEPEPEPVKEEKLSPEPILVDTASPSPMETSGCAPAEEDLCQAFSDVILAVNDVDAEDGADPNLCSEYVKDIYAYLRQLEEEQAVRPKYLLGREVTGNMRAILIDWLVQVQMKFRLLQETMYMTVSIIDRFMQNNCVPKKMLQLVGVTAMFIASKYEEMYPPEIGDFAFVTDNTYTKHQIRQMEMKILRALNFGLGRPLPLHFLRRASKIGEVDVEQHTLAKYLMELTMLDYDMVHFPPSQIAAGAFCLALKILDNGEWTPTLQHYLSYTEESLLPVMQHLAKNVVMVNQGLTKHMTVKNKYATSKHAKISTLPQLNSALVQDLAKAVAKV
Experimental: as §1

CC[C@H](CO)Nc1nc(NCc2ccccc2)c2n[nH]c(C(C)C)c2n1 [LGR 1404, 7-Benzylamino-5(R)-[(1-hydroxymethyl)propylamino]-3-isopropyl-1(2)H-pyrazolo[4,3-d]pyrimidine]
IC50 (Cdk2): 220 nM
IC50 (Cdk5): 940 nM

CC(C)c1n[nH]c2c(NCc3ccccc3)nc(NC3CCCCC3N)nc12 (stereo not shown) [LGR 1406, 5-[(2-E/Z-aminocyclohexyl)amino]-7-benzylamino-3-isopropyl-1(2)H-pyrazolo[4,3-d]pyrimidine]
morphologically altered, dead or detached cells, loss of membrane integrity (propidium iodide) (HMEC-1 cells): no increase of morphologically altered, dead or detached cells, and no loss of membrane integrity
IC50 (Cdk9/CycT): 1000 nM
IC50 (Cdk7/CycH/MAT1): > 100000 nM
IC50 (PAK4): < 10000 nM
IC50 (Cdk2/CycE): 590 nM
IC50 (Cdk5/p25): 440 nM
IC50 (Aurora kinase A): < 10000 nM
IC50 (RSK3): < 10000 nM
IC50 (FAK): < 10000 nM
IC50 (Cdk2/CycA): 990 nM
IC50 (Cdk6/CycD1): > 100000 nM
IC50 (Cdk1/CycB): 3200 nM

CC(C)c1n[nH]c2c(NCc3ccccc3)nc(NC3CCC(N)CC3)nc12 (stereo not shown) [LGR 1407, 5-[(4-E-aminocyclohexyl)amino]-7-benzylamino-3-isopropyl-1(2)H-pyrazolo[4,3-d]pyrimidine]
IC50 (Cdk9/CycT): 1900 nM
IC50 (Cdk7/CycH/MAT1): > 100000 nM
IC50 (Cdk2/CycE): 990 nM
IC50 (Cdk5/p25): 1600 nM
IC50 (Aurora kinase A): ≤ 10000 nM
IC50 (Cdk2/CycA): 1500 nM
IC50 (Cdk6/CycD1): 91000 nM
IC50 (Cdk1/CycB): 5800 nM
